Measurements from PubChem BioAssay AID504678 (The Scripps Research Institute Molecular Screening Center, 2011).
Active and inactive are the calls of the source.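 Rule for the calls: active = compound whose IC50 against bacterial viability is at or below 10 µM; inactive = IC50 above 10 µM.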

Tested on: E. coli V3065 growth, OD600 absorbance
Experiment: E. coli V3065 growth inhibition, dose response, counter-screen for AddAB recombination inhibitor project, absorbance, OD600 (AID 504678)

| Compound | IC50 |
| --- | --- |
| CC(=O)Nc1ccc2nc(NC(=O)c3ccc([N+](=O)[O-])o3)sc2c1 | > 119 µM (inactive) |
| O=C(OCC(=O)c1cccs1)c1ccc([N+](=O)[O-])o1 | > 119 µM (inactive) |
| C=CCn1c(Sc2ncc([N+](=O)[O-])s2)n[nH]c1=O | 20.4 µM (inactive) |
| Cc1ccc2nc(/C(C#N)=C\c3ccc([N+](=O)[O-])o3)[nH]c2c1 | > 119 µM (inactive) |
| O=C(Nc1ccc(N2CCOCC2)cc1)c1ccc([N+](=O)[O-])o1 | 17.3 µM (inactive) |
| O=C(Nc1ncccn1)c1ccc([N+](=O)[O-])o1 | 33 µM (inactive) |
| N#Cc1c(NC(=O)c2ccc([N+](=O)[O-])o2)sc2c1CCC2 | > 119 µM (inactive) |
| Cc1cccnc1NC(=O)c1ccc([N+](=O)[O-])o1 | 39.5 µM (inactive) |
| CCn1cc(C(=O)O)c(=O)c2cnc(N3CCN(C(=S)Nc4ccccc4C(F)(F)F)CC3)nc21 | > 39.5 µM (inactive) |
| NC(=O)c1ccsc1NC(=O)COC(=O)c1ccc([N+](=O)[O-])o1 | > 119 µM (inactive) |
| O=C(NCc1cccnc1)c1ccc([N+](=O)[O-])o1 | > 39.5 µM (inactive) |
| O=C(Nc1cccc(NC(=O)c2ccccc2Cl)c1)c1ccc([N+](=O)[O-])o1 | > 119 µM (inactive) |
